Data on four compounds can be found in ChEMBL document CHEMBL1125524, “Adenosine A1 antagonists. 2. Structure-activity relationships on diuretic activities and protective effects against acute renal failure” (J Med Chem, 1992).

The target in one assay is T1, Adenosine receptor A1 (Cavia porcellus, UniProt P47745).
T1 sequence (P47745 whole entry): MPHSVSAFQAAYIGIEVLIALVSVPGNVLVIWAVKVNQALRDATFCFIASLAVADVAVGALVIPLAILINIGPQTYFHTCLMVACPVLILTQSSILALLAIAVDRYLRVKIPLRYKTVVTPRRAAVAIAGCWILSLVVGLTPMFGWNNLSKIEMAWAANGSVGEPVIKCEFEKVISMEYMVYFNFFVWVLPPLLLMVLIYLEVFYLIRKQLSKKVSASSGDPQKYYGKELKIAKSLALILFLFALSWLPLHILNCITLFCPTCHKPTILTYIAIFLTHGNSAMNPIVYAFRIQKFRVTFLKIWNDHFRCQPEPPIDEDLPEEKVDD

Assay [1] deals with Rattus norvegicus. The assay can be described thus: Oral diuretic activity was measured after oral administration of 25 mg/kg to rats(control volume is 0.89+/-0.06). The assay is classed as functional, Urine.
Assay [2] deals with Rattus norvegicus. The assay can be described thus: Effect on urinary excretion potassium and sodium after oral administration of 25 mg/kg to rats(potassium and sodium excretion in control rat is […]+/-[…]). The assay is classed as functional, Urine.
Assay [3] has as its system Rattus norvegicus. Briefly: Ratio of urinary excretion value (urinary volume) in treated rats to that in control rats, at a peroral dose of 25 mg/Kg. The class given is functional, Urine.
Assay [4] relates to Rattus norvegicus. Briefly: Ratio of urinary excretion value (Na+ concentration) in treated rats to that in control rats, at a peroral dose of 25 mg/Kg. The assay is classed as functional, Urine.
Assay [5] relates to Rattus norvegicus. The assay can be described thus: Serum creatinine concentration measured after intraperitoneal administration of 10 mg/kg of compound to rats(vehicle 4.98+/-0.08). The assay is classed as functional.
The subject of assay [6] is Rattus norvegicus. The assay can be described thus: Urea nitrogen concentration measured after intraperitoneal administration of 10 mg/kg of compound to rats(vehicle 150.7+/-3.4). The assay is classed as functional.
The next assay addresses Adenosine A2 receptor (Rattus norvegicus, UniProt P29276+P30543).
Assay [7] deals with Rattus norvegicus. Briefly: Percent inhibition of Urea nitrogen by the compound given as ratio of UN value in treated to vehicle treated ones after intraperitoneal administration of 10 mg/kg of compound to rats(vehicle 150.7+/-3.4). The class given is functional. The conditions noted are these: ip.
Assay [8] concerns Rattus norvegicus. The assay can be described thus: Percent inhibition of serum creatinine by the compound given as ratio of Cr value in treated to vehicle treated ones after intraperitoneal administration of 10 mg/kg of compound to rats(vehicle 4.98+/-0.08). The class given is functional. The conditions noted are these: ip.
In assay [9] the test system is Rattus norvegicus. The assay can be described thus: Ratio of sodium ion/potassium ion concentration in treated rats to that in control rats, at a peroral dose of 25 mg/Kg. The class given is functional.
Assay [10] has as its system Rattus norvegicus. The assay can be described thus: Oral diuretic activity was measured after oral administration of 1.6 mg/kg to rats(control volume is 0.96+/-0.09). The class given is functional, Urine.
For assay [11], the system named is Rattus norvegicus. Briefly: Percent inhibition of Urea nitrogen by the compound given as ratio of UN value in treated to vehicle treated ones after intraperitoneal administration of 10 mg/kg of compound to rats(vehicle 129.1+/-14.5). The assay is classed as functional. Particulars: ip.
The test system of assay [12] is Rattus norvegicus. Briefly: Ratio of urinary excretion value (Na+ concentration) in treated rats to that in control rats, at a peroral dose of 0.4 mg/Kg. The class given is functional, Urine.
Assay [13] concerns Rattus norvegicus. Briefly: Percent inhibition of serum creatinine by the compound given as ratio of Cr value in treated to vehicle treated ones after intraperitoneal administration of 1 mg/kg of compound to rats(vehicle 3.62+/-0.52). The class given is functional. Particulars: ip.
In assay [14] the test system is Rattus norvegicus. Briefly: Ratio of urinary excretion value (urinary volume) in treated rats to that in control rats, at a peroral dose of 1.6 mg/Kg. The assay is classed as functional, Urine.
The test system of assay [15] is Rattus norvegicus. The assay can be described thus: Effect on urinary excretion potassium and sodium after oral administration of 0.4 mg/kg to rats(potassium and sodium excretion in control rat is 0.191+/-0.020). The class given is functional, Urine.
For assay [16], the system named is Rattus norvegicus. Briefly: Ratio of sodium ion/potassium ion concentration in treated rats to that in control rats, at a peroral dose of 0.4 mg/Kg. The class given is functional.
The test system of assay [17] is Rattus norvegicus. The assay can be described thus: Ratio of urinary excretion value (urinary volume) in treated rats to that in control rats, at a peroral dose of 0.4 mg/Kg. The class given is functional, Urine.
For assay [18], the system named is Rattus norvegicus. Briefly: Serum creatinine concentration measured after intraperitoneal administration of 1 mg/kg of compound to rats(vehicle 3.62+/-0.52). The class given is functional.
Assay [19] relates to Rattus norvegicus. Briefly: Oral diuretic activity was measured after oral administration of 0.4 mg/kg to rats(control volume is 1.15+/-0.17). The assay is classed as functional, Urine.
The test system of assay [20] is Rattus norvegicus. The assay can be described thus: Percent inhibition of Urea nitrogen by the compound given as ratio of UN value in treated to vehicle treated ones after intraperitoneal administration of 1 mg/kg of compound to rats(vehicle 105.2+/-14.9). The assay is classed as functional. The conditions noted are these: ip.
Assay [21] has as its system Rattus norvegicus. Briefly: Effect on urinary excretion potassium and sodium after oral administration of 1.6 mg/kg to rats(potassium and sodium excretion in control rat is 0.147+/-0.015). The class given is functional, Urine.
The subject of assay [22] is Rattus norvegicus. Briefly: Urea nitrogen concentration measured after intraperitoneal administration of 10 mg/kg of compound to rats(vehicle 129.1+/-14.5). The class given is functional.
The test system of assay [23] is Rattus norvegicus. The assay can be described thus: Urea nitrogen concentration measured after intraperitoneal administration of 1 mg/kg of compound to rats(vehicle 105.2+/-14.9). The class given is functional.
The test system of assay [24] is Rattus norvegicus. Briefly: Serum creatinine concentration measured after intraperitoneal administration of 10 mg/kg of compound to rats(vehicle 3.93+/-0.45). The class given is functional.
For assay [25], the system named is Rattus norvegicus. The assay can be described thus: Ratio of urinary excretion value (Na+ concentration) in treated rats to that in control rats, at a peroral dose of 1.6 mg/Kg. The class given is functional, Urine.
Assay [26] deals with Rattus norvegicus. Briefly: Ratio of sodium ion/potassium ion concentration in treated rats to that in control rats, at a peroral dose of 1.6 mg/Kg. The class given is functional.
The test system of assay [27] is Rattus norvegicus. Briefly: Percent inhibition of serum creatinine by the compound given as ratio of Cr value in treated to vehicle treated ones after intraperitoneal administration of 10 mg/kg of compound to rats(vehicle 3.93+/-0.45). The assay is classed as functional. The conditions noted are these: ip.
Assay [28] deals with Rattus norvegicus. Briefly: Ratio of urinary excretion value (Na+ concentration) in treated rats to that in control rats, at a peroral dose of 6.25 mg/Kg. The assay is classed as functional, Urine.
Assay [29] has as its system Rattus norvegicus. The assay can be described thus: Ratio of urinary excretion value (urinary volume) in treated rats to that in control rats, at a peroral dose of 6.25 mg/Kg. The assay is classed as functional, Urine.

Description for Adenosine receptor A1: Binding affinity against adenosine A1 receptor in guinea pig forebrain membranes using N6-[3H]cyclohexyladenosine as radioligand

A word on the Ki: it is a dissociation constant, usually derived from enzyme kinetics or from competition with a known ligand. A low value points to tighter binding. `CCCn1c(=O)c2[nH]c(CC3CCCCC3)nc2n(CCC)c1=O` had a Ki at Adenosine receptor A1 of 0.011 µM.

As a reminder, the inhibition in vivo is how much of the control response was suppressed. For the compound `CCCn1c(=O)c2c(nc(C(C3CC3)C3CC3)n2CC(=O)O)n(CCC)c1=O`, the inhibition constant Ki at Adenosine receptor A1 is 6.9 µM; at Adenosine A2 receptor, more than 100 µM. This compound also gave a Urine volume in the assay with Rattus norvegicus [1] of 1.02 ml 6hr-1 100g-1. Moreover, the Na with Rattus norvegicus [2] was found to be 0.185 m equiv 6hr-1 100g-1. The T/C came to 1.15 in the assay with Rattus norvegicus [3] and 1.14 in the assay on Rattus norvegicus [4]. In the assay with Rattus norvegicus [5], this compound came in with a Cr of 4.79 mg/dL. The compound further registered a UN in the assay with Rattus norvegicus [6] of 145.5 mg/dL. For the same compound, the inhibition in vivo at 10 mg/kg was 3% with Rattus norvegicus [7] and 4% with Rattus norvegicus [8]. Moreover, the “Na+/K+” value in the assay with Rattus norvegicus [9] came out at 0.95.

In the case of `CCCCn1c(=O)c2nc(C(C3CC3)C3CC3)[nH]c2n(CCCC)c1=O`, the Urine volume in the assay with Rattus norvegicus [10] is 1.59 ml 6hr-1 100g-1; in the assay on Rattus norvegicus [19], 1.24 ml 6hr-1 100g-1. The inhibition in vivo at 10 mg/kg came to 37% with Rattus norvegicus [11] and 41% in the assay on Rattus norvegicus [27]. Besides, the T/C in the assay with Rattus norvegicus [12] is recorded as 1.44; in the assay with Rattus norvegicus [14] it was 1.66; in the assay on Rattus norvegicus [17], 1.08; in the assay on Rattus norvegicus [25], 1.91. Moreover, the inhibition in vivo at 1 mg/kg in the assay with Rattus norvegicus [13] was found to be 0%; in the assay with Rattus norvegicus [20], 4%. Moreover, the Na in the assay with Rattus norvegicus [15] was 0.276 m equiv 6hr-1 100g-1; with Rattus norvegicus [21], 0.282 m equiv 6hr-1 100g-1. Moreover, the “Na+/K+” value in the assay with Rattus norvegicus [16] was found to be 1.45; in the assay with Rattus norvegicus [26], 1.66. Also, the Cr with Rattus norvegicus [18] came out at 3.63 mg/dL; with Rattus norvegicus [24], 2.3 mg/dL. For the same compound, the UN in the assay with Rattus norvegicus [22] was determined as 81.1 mg/dL; in the assay on Rattus norvegicus [23] it was 101.1 mg/dL. The same compound had an inhibition constant Ki at Adenosine A2 receptor of 0.44 µM.

With `CCCn1c(=O)c2c(nc(C(C3CC3)C3CC3)n2CC)n(CCC)c1=O`, the Urine volume in the assay with Rattus norvegicus [1] is listed as 2.15 ml 6hr-1 100g-1. This compound showed a Na with Rattus norvegicus [2] of 0.348 m equiv 6hr-1 100g-1. The T/C with Rattus norvegicus [3] is recorded as 2.42; in the assay with Rattus norvegicus [28], 1.24; with Rattus norvegicus [4], 2.14; with Rattus norvegicus [29], 1.19. Further, the Cr in the assay with Rattus norvegicus [5] was 4.5 mg/dL. In addition, the UN with Rattus norvegicus [6] turned out to be 142.7 mg/dL. The compound also showed a Ki on Adenosine A2 receptor of 14 µM. In addition, the inhibition in vivo at 10 mg/kg in the assay with Rattus norvegicus [7] amounted to 5%; in the assay with Rattus norvegicus [8] it was 10%. For the same compound, the “Na+/K+” value in the assay with Rattus norvegicus [9] worked out at 1.51.
